For data set [1], the system named is Aconitinarrhythmie der Ratte. In words: Antiarrhythmic activity, aconitine-induced arrhythmia in the anaesthetised rat (oral dosing, aconitine i.v. infusion 60 min later). Format: in vivo, Ratten (Stamm: Sprague Dawley). The conditions noted are these: for ED50: Rattus norvegicus, po, 1 h, read-out: Wirksame Dosis ED 50 %; for R.W. = Relative Wirksamkeit, bezogen auf Chinidin = 1,00 / Maximale Wirkung Δ % (Verlängerung der Aconitinfusionsdauer): rat, per os; for R.W. = Relative Wirksamkeit, bezogen auf Chinidin = 1,00: relative potency from ED 50 %; for Maximale Wirkung Δ % (Verlängerung der Aconitinfusionsdauer): effect of the maximal tolerated dose. The method, then: Zur Bestimmung der antiarrhythmischen Wirksamkeit werden die Substanzen Ratten (Stamm: Sprague Dawley, Gewicht 200 bis 250 g) oral appliziert. 45 min später werden die Tiere mit Thiobutabarbital-Natrium (100,0 mg/kg i.p.) narkotisiert. Als arrhythmogene Substanz dient Aconitin, das 60 min nach Substanzapplikation i.v. infundiert wird (Dosierungsgeschwindigkeit: 0,005 mg/kg x min). Bei nicht behandelten Tieren (N = 52) treten nach 2,74 + 0,07 min im EKG Arrhythmien auf, deren Eintritt durch Antiarrhythmika dosisabhängig verzögert werden kann.
Aus den linearen Beziehungen zwischen log Dosis (mg/kg) der Prüfsubstanzen und der relativen Verlängerung der Aconitin--Infusionsdauer (Δ%) wird die Dosis bestimmt, welche die Infusionsdauer um 50 % verlängert (ED 50 %).
(§1) Zur weiteren Charakterisierung der Substanzen wird aus der in den Experimenten verwendeten dezimalgeometrischen Dosenfolge (Faktor [formula] ) die antiarrhythmische Wirkung der maximal tolerierten Dosis bestimmt.

A short description of data set [2]: Acute toxicity / tolerability in the rat after oral dosing (toxic symptoms: changes of baseline ECG, cyanosis, convulsions). Type of data set: in vivo. The conditions noted are these: in vivo, po; for MTD: per os, highest tolerated dose, at which the maximal effect was read, read-out: Maximale Wirkung Dosis (maximal tolerierte Dosis); for selectivity ratio: read-out: Q = Toxische Dosis / ED 50 %.
Text: as §1
(§2) Ferner wird die Dosis ermittelt, bei welcher toxische Symptome (Veränderungen des Ausgangs-EKG, Cyanose, Krämpfe) auftreten.

In another data set the test system is Ratte. The description is as above. Format: in vivo. Conditions: per os; for Toxizität Dosis: dose after which the first toxic symptoms are observed.
Text: as §1, §2

Where a name gives a salt, the structure may show the parent alone.

Consider `CC(C)C(CN)(CCCN(C)CCc1ccccc1)c1ccccc1` (stereo not drawn) [Beispiel 1, 1-Amino-2-isopropyl-2-phenyl-5-(phenethyl)methylamino-pentan], for which, in data set [1], the ED50 worked out at 29.4 mg/kg and the “R.W. = Relative Wirksamkeit, bezogen auf Chinidin = 1,00” value (“R.W. = Relative Wirksamkeit” for short) is listed as 1,48.
The like results for `CC(C)C(CN)(CCCNCCc1ccccc1)c1ccccc1.Cl.Cl` (stereo not drawn) [Beispiel 6, 1-Amino-2-isopropyl-2-phenyl-5-(phenethyl)amino--pentan-dihydrochlorid] were, in that order, 21.6 mg/kg and 2,01.
Consider `CCNCC(CCCN(C)CCc1ccccc1)(c1ccccc1)C(C)C` (stereo not drawn) [Beispiel 9, 1-Ethylamino-2-isopropyl-2-phenyl-5-(phenethyl)-methyl-amino-pentan-dihydrochlorid], for which, in data set [1], the ED50 was determined as 11.8 mg/kg and the “R.W. = Relative Wirksamkeit” value is listed as 3,69.
As to `CCCNCC(CCCN(C)CCc1ccccc1)(c1ccccc1)C(C)C` (stereo not drawn) [Beispiel 10, 1-(n-Propyl)amino-2-isopropyl-2-phenyl-5-(phenethyl)-methylamino-pentan-dihydrochlorid], in data set [1], the ED50 was determined as 11.8 mg/kg; the “Maximale Wirkung Δ % (Verlängerung der Aconitinfusionsdauer)” value (“Maximale Wirkung Δ %” below) is recorded as 243%; the “R.W. = Relative Wirksamkeit” value is listed as 3,69. Moreover, in data set [2], the MTD was found to be 100 mg/kg and the selectivity ratio was found to be 18. The “Toxizität Dosis” value in the data set on Ratte came out at 215 mg/kg.
Take `CC(C)NCC(CCCN(C)CCc1ccccc1)(c1ccccc1)C(C)C` (stereo not drawn) [Beispiel 11, 1-Isopropylamino-2-isopropyl-2-phenyl-5-(phenethyl)-methylamino-pentan-dihydrochlorid]: the ED50 in data set [1] came out at 6.42 mg/kg.
In the case of `CCCCNCC(CCCN(C)CCc1ccccc1)(c1ccccc1)C(C)C` (stereo not drawn) [Beispiel 12, 1-(n-Butyl)amino-2-isopropyl-2-phenyl-5-(phenethyl)-methylamino-pentan-dihydrochlorid], in data set [1], the ED50 turned out to be 22.5 mg/kg and the “R.W. = Relative Wirksamkeit” value is on record as 1,93.
For the compound `CCC(C)NCC(CCCN(C)CCc1ccccc1)(c1ccccc1)C(C)C` (stereo not drawn) [Beispiel 13, 1-(sec-Butyl)amino-2-isopropyl-2-phenyl-5-(phenethyl)-methylamino-pentan-dihydrochlorid], in data set [1], the ED50 turned out to be 12.9 mg/kg; the “Maximale Wirkung Δ %” value worked out at 237%; the “R.W. = Relative Wirksamkeit” value is 3,37. Moreover, in data set [2], the MTD was 100 mg/kg and the selectivity ratio turned out to be 17. The “Toxizität Dosis” value in the data set with Ratte is reported as 215 mg/kg.
Consider `CC(C)CNCC(CCCN(C)CCc1ccccc1)(c1ccccc1)C(C)C` (stereo not drawn) [Beispiel 14, 1-Isobutylamino-2-isopropyl-2-phenyl-5-(phenethyl)-methylamino-pentan-dihydrochlorid], for which, in data set [1], the ED50 is 14.3 mg/kg; the “Maximale Wirkung Δ %” value is on record as 287%; the “R.W. = Relative Wirksamkeit” value was 3,04. In data set [2], the MTD is 100 mg/kg and the selectivity ratio was 15. In the data set on Ratte, the “Toxizität Dosis” value is reported as 215 mg/kg.
As to `CCNCC(CCCN(C)CCc1ccc(OC)c(OC)c1)(c1ccc(OC)c(OC)c1)C(C)C` (stereo not drawn) [Beispiel 15, 1-Ethylamino-2-isopropyl-2-(3,4-dimethoxyphenyl)-5--[(3,4-dimethoxyphenethyl)methylamino]-pentan-dihydrochlorid], in data set [1], the ED50 was determined as 17.1 mg/kg and the “R.W. = Relative Wirksamkeit” value is 2,54.
The corresponding values for `COc1ccc(CCN(C)CCCC(CNC(C)C)(c2ccc(OC)c(OC)c2)C(C)C)cc1OC` (stereo not drawn) [Beispiel 17, 1-Isopropylamino-2-isopropyl-2-(3,4-dimethoxyphenyl)-5--[(3,4-dimethoxyphenethyl)methylamino]-pentan-dihydrochlorid] are 26.1 mg/kg and 1,67.
For `CCNCC(CCCN(C)CCc1ccc(OC)c(OC)c1)(c1cc(OC)c(OC)c(OC)c1)C(C)C` (stereo not drawn) [Beispiel 20, 1-Ethylamino-2-isopropyl-2-(3,4,5-trimethoxyphenyl)-5--[(3,4-dimethoxyphenethyl)methylamino]-pentan-dihydrochlorid], in data set [1], the ED50 was 12.3 mg/kg; the “Maximale Wirkung Δ %” value amounted to 224%; the “R.W. = Relative Wirksamkeit” value is 3,54. In addition, in data set [2], the MTD was found to be 215 mg/kg and the selectivity ratio was 38. Besides, the “Toxizität Dosis” value in the data set with Ratte is given as 464 mg/kg.
Regarding `CCCNCC(CCCN(C)CCc1ccc(OC)c(OC)c1)(c1cc(OC)c(OC)c(OC)c1)C(C)C` (stereo not drawn) [Beispiel 21, 1-(n-Propyl)amino-2-isopropyl-2-(3,4,5-trimethoxyphenyl)-5-[(3,4-dimethoxyphenethyl)methylamino]--pentan-dihydrochlorid], in data set [1], the ED50 was found to be 23.4 mg/kg and the “R.W. = Relative Wirksamkeit” value is reported as 1,86.
The corresponding values for `COc1ccc(CCN(C)CCCC(CNC(C)C)(c2cc(OC)c(OC)c(OC)c2)C(C)C)cc1OC` (stereo not drawn) [Beispiel 22, 1-Isopropylamino-2-isopropyl-2-(3,4,5-trimethoxyphenyl)-5-[(3,4-dimethoxyphenethyl)methylamino]--pentan-dihydrochlorid] are 24.8 mg/kg and 1,75.
`CCCCNCC(CCCN(C)CCc1ccc(OC)c(OC)c1)(c1cc(OC)c(OC)c(OC)c1)C(C)C` (stereo not drawn) [Beispiel 23]: the ED50 in data set [1] came out at 33.8 mg/kg.
`CCC(C)NCC(CCCN(C)CCc1ccc(OC)c(OC)c1)(c1cc(OC)c(OC)c(OC)c1)C(C)C` (stereo not drawn) [Beispiel 24]: in data set [1], the ED50 stood at 17 mg/kg and the “R.W. = Relative Wirksamkeit” value is on record as 2,56.
The corresponding values for `CCCCNCC(CCCN(C)CCc1ccc(OC)c(OC)c1)(c1ccc(Cl)cc1)C(C)C` (stereo not drawn) [Beispiel 27, 1-(n-Butyl)amino-2-isopropyl-2-(4-chlorphenyl)--5-[(3,4-dimethoxyphenethyl)methylamino]-pentan--dihydrochlorid] are 21.5 mg/kg and 2,02.
The corresponding values for `CNCC(CCCN(C)CCc1ccccc1)c1ccccc1` (stereo not drawn) [Beispiel 28, 1-Methylamino-2-phenyl-5-(phenethyl)methylamino--pentan] are 11.6 mg/kg and 3,75.
For `CNCC(CCCN(C)CCc1ccccc1)(c1ccccc1)C(C)C` (stereo not drawn) [Beispiel 30, 1-Methylamino-2-isopropyl-2-phenyl-5-(phenethyl)methyl-amino-pentan-dihydrochlorid], in data set [1], the ED50 was 11 mg/kg; the “Maximale Wirkung Δ %” value is on record as 499%; the “R.W. = Relative Wirksamkeit” value is listed as 3,96. In data set [2], the MTD came out at 215 mg/kg and the selectivity ratio came out at 42. In addition, the “Toxizität Dosis” value with Ratte was 464 mg/kg.
For the compound `CNCC(CCCN(C)CCc1ccc(OC)c(OC)c1)(c1ccc(OC)c(OC)c1)C(C)C` (stereo not drawn) [Beispiel 32, 1-Methylamino-2-isopropyl-2-(3,4-dimethoxyphenyl)-5--[(3,4-dimethoxyphenethyl)methylamino]-pentan-dihydrochlorid], in data set [1], the ED50 worked out at 33.8 mg/kg.
Regarding `CNCC(CCCN(C)CCc1ccc(OC)c(OC)c1)(c1cc(OC)c(OC)c(OC)c1)C(C)C` (stereo not drawn) [Beispiel 33, 1-Methylamino-2-isopropyl-2-(3,4,5-trimethoxyphenyl)--5-[(3,4-dimethoxyphenethyl)methylamino]-pentan-dihydrochlorid], in data set [1], the ED50 stood at 21.5 mg/kg and the “R.W. = Relative Wirksamkeit” value was 2,02.
The like results for `CN(C)CC(CCCN(C)CCc1ccccc1)c1ccccc1` (stereo not drawn) [Beispiel 34, 1-Dimethylamino-2-phenyl-5-(phenethyl)methylamino--pentan] were, in that order, 14.7 mg/kg and 2,96.
The corresponding values for `CN(C)CC(C)(CCCN(C)CCc1ccccc1)c1ccccc1` (stereo not drawn) [Beispiel 35, 1-Dimethylamino-2-methyl-2-phenyl-5-(phenethyl)-methyl-amino-pentan] are 8.02 mg/kg and 5,42.
The like results for `CCCCC(CCCN(C)CCc1ccccc1)(CN(C)C)c1ccccc1` (stereo not drawn) [Beispiel 36, 1-Dimethylamino-2-(n-butyl)-2-phenyl-5-(phenethyl)--methylamino-pentan] were, in that order, 8.66 mg/kg and 5,02.
Take `COc1ccc(CCN(C)CCCC(CN(C)C)(c2ccc(OC)c(OC)c2)C(C)C)cc1OC` (stereo not drawn) [Beispiel 38, 1-Dimethylamino-2-isopropyl-2-(3,4-dimethoxyphenyl)--5-[(3,4-dimethoxyphenethyl)methylamino]-pentan-dihydrochlorid]: in data set [1], the ED50 stood at 27.8 mg/kg and the “R.W. = Relative Wirksamkeit” value was 1,57.
The like results for `CCCCCCCCCCCCC(CCCN(C)CCc1ccccc1)(CN(C)C)c1ccccc1` (stereo not drawn) [Beispiel 40, 1-Dimethylamino-2-(n-dodecyl)-2-phenyl-5-(phenethyl)methylamino-pentan] were, in that order, 6.88 mg/kg and 6,32.
For the compound `C=CC1CN2CCC1CC2C(O)c1ccnc2ccc(OC)cc12` (stereo not drawn) [Chinidin, reference compound], in data set [1], the ED50 was 43.5 mg/kg; the “Maximale Wirkung Δ %” value is listed as 129%; the “R.W. = Relative Wirksamkeit” value is recorded as “≡ 1,00”. Besides, in the data set with Ratte, the “Toxizität Dosis” value worked out at 464 mg/kg. Moreover, in the data set on Ratte (therapeutic width), the “Q = Toxische Dosis / ED 50 %” value is recorded as “ll”.

Source of the values: patent publication EP0082266A1, “Substituted 1,5-diaminopentanes, their preparation and pharmaceutical compositions containing them” (BASF Aktiengesellschaft, priority 1981, dated 1983).
